Results on 17 compounds are retold here after ChEMBL document CHEMBL3045361, “Novel GABA-AT inhibitors: QSAR and docking based virtual screening of phenyl substituted -phenyl ethylidene hydrazine analogues” (Med Chem Res, 2011).

By inhibition is commonly meant the percentage by which the read-out fell short of the control.

Each structure is given as a SMILES string.

4-aminobutyrate aminotransferase, mitochondrial (Homo sapiens), sequence (P80404 whole entry): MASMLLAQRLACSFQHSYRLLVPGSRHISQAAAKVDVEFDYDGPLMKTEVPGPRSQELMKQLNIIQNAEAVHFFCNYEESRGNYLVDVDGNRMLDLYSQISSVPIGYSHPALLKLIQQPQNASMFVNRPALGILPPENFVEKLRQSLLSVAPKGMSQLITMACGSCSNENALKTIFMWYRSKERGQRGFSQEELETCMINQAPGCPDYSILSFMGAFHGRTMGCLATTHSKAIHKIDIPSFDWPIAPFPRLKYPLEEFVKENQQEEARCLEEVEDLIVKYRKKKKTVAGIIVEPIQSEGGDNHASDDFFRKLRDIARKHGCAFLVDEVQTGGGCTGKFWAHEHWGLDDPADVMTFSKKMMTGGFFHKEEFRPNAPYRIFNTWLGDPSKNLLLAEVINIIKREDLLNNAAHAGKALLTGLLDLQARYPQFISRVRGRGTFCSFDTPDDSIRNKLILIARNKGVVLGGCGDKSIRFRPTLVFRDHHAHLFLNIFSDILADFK

The assay has as its target 4-aminobutyrate aminotransferase, mitochondrial (Homo sapiens) (UniProt P80404). Nature of the assay: Inhibition of GABA-AT (unknown origin). Also on record: concentration or dose not given beside the values. Conditions: concentration not given here.
With `N/N=C/Cc1ccc(F)cc1`, the inhibition worked out at 61.6%.
In turn, `N/N=C/Cc1ccccc1C(F)(F)F` gave an inhibition of 46.3%.
With `N/N=C/Cc1ccc(C(F)(F)F)cc1`, the inhibition stood at 33.2%.
With `COc1cccc(C/C=N/N)c1` the figure was 77.6%; with `N/N=C/Cc1cccc(Cl)c1`, 74.9%; with `Cc1ccccc1C/C=N/N`, 51.3%.
Turning to `Cc1ccc(C/C=N/N)cc1`, the inhibition was found to be 70.4%.
Take `COc1ccccc1C/C=N/N`: the inhibition was 60.1%.
Regarding `N/N=C/Cc1cccc(C(F)(F)F)c1`, the inhibition was 76%.
For the compound `COc1ccc(C/C=N/N)cc1`, the inhibition is 66.6%.
`Cc1cccc(C/C=N/N)c1`: the inhibition stood at 75.4%.
Compound `N/N=C/Cc1cccc(F)c1` yielded an inhibition of 72.5%.
As to `N/N=C/Cc1ccccc1F`, the inhibition is 62.9%.
The result for `N/N=C/Cc1ccc(Cl)cc1` reads 54.2%; that for `N/N=C/Cc1ccccc1Cl`, 56.1%; that for `N/N=C/Cc1ccccc1`, 75.4%.
`N/N=C/Cc1ccc(Cl)cc1Cl`: the inhibition was 59%.
